Measured values taken from patent US9708370B2, “Azapeptides as CD36 binding compounds” (VALORISATION-RECHERCHE, LIMITED PARTNERSHIP, priority 2007, dated 2017).
“Also recorded” adds a separate entry of the source. Starred links: 1 amine or outer side, 2 acyl side, 3 side chain; linkers in the order of their positions; H or OH if unused. Non-standard residues stand in square brackets, D forms with d. Residues, ends and D or L forms follow the SMILES beside them. azaTyr = O=C(N(Cc1ccc(O)cc1)N[*:1])[*:2]

Experiments:
human GHS-R1a = human GHS-R1a (Homo sapiens (Human), UniProt Q92847); experiment: GHS-R1a binding assay, competition with 125I-ghrelin on membranes of LLC-PK1 cells expressing human GHS-R1a
[1] = tested on: vascular sprouting of aortic endothelium (aortic rings); experiment: Inhibition of microvascular sprouting from Matrigel-embedded aortic explants; assay type: cell-based, mice
Source text: FIG. 1 illustrates disruption of vascular sprouting of aortic endothelium by azapeptide compound DBG178. Sprouting aortic endothelium (Von Willebrand factor positive) expressing CD36 is shown in the upper row of FIG. 1a. Vascular sprouting of aortic rings from C57BL/6 and CD36 null mice in the presence of DBG 178 at 10^−7M is shown in the lower row of FIG. 1a. Histograms of microvascular sprouts areas (mean±s.e.m) from aortic explants of C57BL/6 and CD36 null mice exposed to DBG concentrations from 10^−8 to 10^−6 M p<0.01 compared with control (Ctl) is shown in FIG. 1b.
Aortas were excised from 10-week-old male C57/Bl6+/+ and CD36−/− mice of C57/Bl6 background. The fibroadipose tissue was removed and aortas were sectioned into 2-mm-long cross-sections. The +/+ and −/− rings were covered by 50 μl of Matrigel and cultured for 4 days in EGM-2 medium (Clonetics Corp.). Explants were then exposed to vehicle alone or in presence of an azapeptide prototype DBG178 at the indicated concentrations (10^−8 to 10^−6 M) from day 4 to day 6 of culture in EGM-2 medium. Pictures of each individual explant were taken at day 4 and day 6 and EC growth was measured as the surface covered at day 6 minus the surface covered at day 4 Data were subject to analysis of variance (ANOVA) followed by Dunnet's post test to test for differences among groups. Outgrowing cells were characterized by double-labelling with monoclonal vWF antibody (1:100, Dako) and polyclonal CD36 (1:100, Santa Cruz) after acetone fixation using their respective alexa coupled secondary antibodies.

Sequence of human GHS-R1a (Q92847 whole entry): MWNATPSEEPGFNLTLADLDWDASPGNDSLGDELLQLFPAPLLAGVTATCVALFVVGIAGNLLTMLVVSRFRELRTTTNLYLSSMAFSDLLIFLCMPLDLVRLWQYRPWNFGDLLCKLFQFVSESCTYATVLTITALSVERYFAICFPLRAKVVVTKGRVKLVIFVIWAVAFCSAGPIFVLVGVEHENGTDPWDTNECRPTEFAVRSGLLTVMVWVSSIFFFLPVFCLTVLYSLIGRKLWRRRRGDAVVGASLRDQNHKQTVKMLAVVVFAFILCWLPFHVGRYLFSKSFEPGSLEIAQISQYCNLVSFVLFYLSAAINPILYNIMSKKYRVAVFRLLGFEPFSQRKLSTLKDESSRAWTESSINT

SMILES: C[C@H](NC(=O)[C@@H](Cc1c[nH]c2ccccc12)NC(=O)[C@@H](N)Cc1cnc[nH]1)C(=O)NN(Cc1ccc(O)cc1)C(=O)N[C@H](Cc1ccccc1)C(=O)N[C@@H](CCCCN)C(N)=O [DBG178p, His-D-Trp-Ala-azaTyr-D-Phe-Lys-NH2] (H-H[dW]A[azaTyr][dF]K-NH2)
- IC50 (human GHS-R1a; Table 4, LLCPK-1 membranes overexpressing GHS-R1a, radioiodinated (1-28) rat ghrelin as tracer, read-out: EC50 (text: IC50 values from competition curves in GHS-R1a radioreceptor assay)): 15.7 µM
- binding affinity for GHS-R1a receptor in words (human GHS-R1a; compared with GHRP-6): reducing the binding affinity
- inhibition of vascular sprouting of aortic rings ([1]; aortic rings from C57BL/6 mice, 10^−7 to 10^−6 M): disrupt significantly; also recorded: significantly inhibited
- inhibitory effect on vascular sprouting of aortic rings ([1]; aortic rings from CD36 null mice): not detected
